Laboratory results: US7323468B2, “Pyridopyrazines and the use thereof as kinase inhibitors” (AEterna Zentaris GmbH, priority 2003, dated 2008)

Assays:
[1] = system: Raf-Mek-Erk cascade (GST-c-Raf-DD, GST-Mek1, His-Erk2); assay: Raf-Mek-Erk ELISA (cell-free reconstituted cascade, Erk phosphorylation); type: biochemical, human; conditions: inhibition of Erk phosphorylation, 1 mM ATP, 10 concentrations 31.6 pM-100 μM
Procedure: The inhibitory effect on the following human serine/threonine and tyrosine kinases of the compounds of the invention was tested in conventional kinase assays: PKB/Akt1, c-Raf, B-Raf, Mek, PDGFRbeta, Flt-3, c-Kit, c-Ab1, KDR, FGFR1 and IGF1R. Both the full-length kinases and truncated fragments—but at least the cytoplasmic, constitutively active kinase domains—were employed. The kinases were prepared as recombinant fusion proteins with GST (glutathion S-transferase) or HIS Tag in Sf9 cell culture. Depending on the substrate type, the various kinase reactions were carried out in sandwich ELISA formates or by means of a simple substrate adsorption assay on 96-well Flashplates (Perkin Elmer).
The testing on substances on the Raf-Mek-Erk cascade is described in detail below. Selected test results for the Raf and Mek inhibitors are then listed.
Procedure: Raf-Mek-Erk ELISA
Potential inhibitors were firstly investigated at a concentration of 20 μg/ml in initial single-dose determinations on 96-well microtiter plates (MTPs). Substances with >70% inhibition were employed for dose-response studies.
Reconstitution of the Raf-Mek-Erk cascade was quantified with the aid of a cell-free ELISA.
A typical kinase assay was carried out in a final volume of 50 μl with in each case 20-150 ng of Raf, Mek, Erk kinase protein, 1 mM ATP, 10 mM MgCl2, 150 mM NaCl, 25 mM beta-glycerophosphate, 25 mM Hepes pH 7.5. Before the kinase reaction, the test substances were each preincubated singly with each of the three kinase proteins at room temperature for 30 minutes. For the kinase reaction, the kinases preincubated with test substance were combined and incubated at 26° C. for 30 minutes. The reaction was stopped by a final concentration of 2% SDS and 10 minutes at 50° C. in a heating block.
For the immunodetection, the reaction mixtures were transferred to 96-well MTPs coated with anti-Erk Ab(K-23, Santa Cruz Biotechnology, incubated at room temperature for 60 minutes and washed 3× with TBST. Anti-phospho-Erk Ab (#9106, New England Biolabs) 1:500 in 50 μl of TBST/1% BSA, was added and incubated at 4° C. overnight. After the MTPs had been washed 3× with TBST, secondary anti-mouse IgG^POD conjugate (#NA931, Pharmacia) 1:2500 was added, incubated at room temperature for 1 h and again washed 3× with TBST. For colorimetric detection of the kinase reaction, 50 μl of OPD (o-phenyldiamine dihydrochloride) chromogen buffer were pipetted into each of the wells and incubated at 37° C. for 30 minutes. The colour reaction was then determined in an ELISA reader at 492 nm.
The experimental determination of dose-response plots took place using the same experimental design with 10 semilogarithmically graded concentrations from 31.6 pM-100 μM. The IC50 values were calculated in GraphPadPrism.

melting point	IC50 [1]	SMILES
239 to 240 °C (dec.)	–	C=C(C)CNC(=S)Nc1ccc2ncc(-c3ccc4ccccc4c3)nc2n1 [Example 6, 1-(2-Methylallyl)-3-(3-naphthalen-2-ylpyrido[2,3-b]pyrazin-6-yl)thiourea]
–	> 100 µM	S=C(NCc1ccccc1)Nc1ccc2ncc(-c3ccccc3)nc2n1 [Example 13, 1-Benzyl-3-(3-phenylpyrido[2,3-b]pyrazin-6-yl)thiourea]
–	> 100 µM	Cc1ccc(NC(=O)Nc2ccc3ncc(-c4ccccc4)nc3n2)cc1 [Example 15, 1-(3-Phenylpyrido[2,3-b]pyrazin-6-yl)-3-p-tolylurea]
–	> 100 µM	COc1ccc(-c2cnc3ccc(NC(=S)Nc4ccc([N+](=O)[O-])cc4)nc3n2)cc1 [Example 9, 1-[3-(4-Methoxyphenyl)pyrido[2,3-b]pyrazin-6-yl]-3-(4-nitrophenyl)thiourea]
–	> 100 µM	CC(C)(C)NC(=S)Nc1ccc2ncc(-c3ccccc3)nc2n1 [Example 10, 1-tert-Butyl-3-(3-phenylpyrido[2,3-b]pyrazin-6-yl)thiourea]
–	> 100 µM	O=C(Nc1ccc(Cl)c(C(F)(F)F)c1)Nc1ccc2ncc(-c3ccccc3)nc2n1 [Example 16, 1-(4-Chloro-3-trifluoromethylphenyl)-3-(3-phenylpyrido[2,3-b]pyrazin-6-yl)urea]
–	> 100 µM	O=[N+]([O-])c1ccc(NC(=S)Nc2ccc3ncc(-c4ccc5ccccc5c4)nc3n2)cc1 [Example 8, 1-(3-Naphthalen-2-ylpyrido[2,3-b]pyrazin-6-yl)-3-(4-nitrophenyl)thiourea]
